Experimental data taken from patent publication US11958831B2, “Pyrazole compounds, pharmaceutical compositions thereof and use thereof” (ARTIVILA (SHENZHEN) INNOVATION CENTER, LTD., priority 2018, dated 2024).

biological target: IRAK4 kinase (Homo sapiens (Human), UniProt Q9NWZ3); experiment: IRAK4 kinase activity assay (mobility shift, Km ATP); assay type: biochemical; details: Km ATP (15.6 μM ATP), 1 nM IRAK4, 60 min room temperature
Protocol: Inhibitory activity (IC50) of the compounds against IRAK4 kinase under Km ATP was detected through mobility spectrum analysis (MSA). IRAK4 kinase was purchased from Carna (Cat. No.: 09-145, batch No.: 14CBS-0020H), and Kinase Substrate 8 was purchased from GL Biochem (Cat. No.: 112396, batch No.: P171207-MJI112396).
The compounds were prepared with DMSO to 100 times the final reaction concentration and diluted to 10 concentrations in sequence at a 3-fold dilution ratio starting from 1 μM. Then 0.25 μL was transferred to a 384-well plate using Echo550. A 1× kinase buffer (50 mM HEPES, pH=7.5, 0.0015% Brij-35, 10 mM MgCl2, 2 mM DTT) was used to prepare a kinase solution of 2.5 times the final concentration. Then 10 μL of the kinase solution of 2.5 times the final concentration was added to each compound well, shaken and mixed uniformly, and incubated at room temperature for 10 min. A 1× kinase buffer was used to prepare a mixed solution of ATP and substrate Kinase Substrate 8 with a concentration of 25/15 times the final concentration. 15 μL of the mixed solution of ATP and the substrate with a concentration of 25/15 times the final concentration were added to each well (the final concentration of IRAK4 kinase was 1 nM, the final concentration of the substrate was 3 μM, and the final concentration of ATP was 15.6 μM), shaken and mixed uniformly, and reacted at room temperature for 60 min. Finally, 30 μL of stopping solution (100 mM HEPES, pH=7.5, 0.0015% Brij-35, 0.2% Coating Reagent #3, 50 mM EDTA) was added to terminate the reaction. CaliperEZ Reader II was used to read data about conversion rates that was then converted into data about inhibition rates. According to the data about the inhibition rate at each concentration, the half maximal inhibitory concentration (IC50) (Table 1) was calculated by a Logit method.

Sequence of IRAK4 kinase (Q9NWZ3 whole entry): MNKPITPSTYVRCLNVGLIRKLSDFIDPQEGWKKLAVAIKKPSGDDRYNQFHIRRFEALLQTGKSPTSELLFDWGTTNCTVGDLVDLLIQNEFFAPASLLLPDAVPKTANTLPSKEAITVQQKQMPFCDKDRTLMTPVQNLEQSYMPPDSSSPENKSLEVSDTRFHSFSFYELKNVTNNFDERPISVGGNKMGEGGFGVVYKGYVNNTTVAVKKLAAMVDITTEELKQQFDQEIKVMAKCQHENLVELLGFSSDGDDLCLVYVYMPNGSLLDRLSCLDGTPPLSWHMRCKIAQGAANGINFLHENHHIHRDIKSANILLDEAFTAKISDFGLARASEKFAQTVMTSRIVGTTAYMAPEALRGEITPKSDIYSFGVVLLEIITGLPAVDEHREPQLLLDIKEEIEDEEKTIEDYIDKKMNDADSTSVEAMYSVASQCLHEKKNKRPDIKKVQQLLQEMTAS

Row | SMILES | IC50 [nM]
1 | CC(=O)N1CCC(N2CC(n3cc(NC(=O)c4cccc(-c5cnn(C(C)C)c5)n4)c(C(F)F)n3)C2)CC1 [Example 8, N-(1-(1-(1-acetylpiperidin-4-yl)azetidin-3-yl)-3-(difluoromethyl)-1H-pyrazol-4-yl)-6-(1-isopropyl-1H-pyrazol-4-yl)-2-picolinamide] | 1.9
2 | CC(=O)N1CCC(N2CC(n3cc(NC(=O)c4cccc(-c5cnn(C(C)(C)CO)c5)n4)c(C(F)F)n3)C2)CC1 [Example 16, N-(1-(1-(1-acetylpiperidin-4-yl)azetidin-3-yl)-3-(difluoromethyl)-1H-pyrazol-4-yl)-6-(1-(1-hydroxy-2-methylpropyl-2-yl)-1H-pyrazol-4-yl)-2-picolinamide] | 1.8
3 | CC(=O)N1CCC(N2CC(n3cc(NC(=O)c4cccc(-c5cnn(C6(CO)CCC6)c5)n4)c(C(F)F)n3)C2)CC1 [Example 14, N-(1-(1-(1-acetylpiperidin-4-yl)azetidin-3-yl)-3-(difluoromethyl)-1H-pyrazol-4-yl)-6-(1-(1-(hydroxymethyl)cyclobutyl)-1H-pyrazol-4-yl)-2-picolinamide] | 3.2
4 | COC(=O)N1CCC(N2CC(n3cc(NC(=O)c4cccc(-c5cn[nH]c5)n4)c(C(F)F)n3)C2)CC1 [Example 21, Methyl 4-(3-(4-(6-(1H-pyrazol-4-yl)-2-picolinamide)-3-(difluoromethyl)-1H-pyrazol-1-yl)azetidin-1-yl)piperidine-1-carboxylate] | 1.7
5 | C[C@H](O)C(=O)N1CCC(N2CC(n3cc(NC(=O)c4cccc(-c5cnn(CC(F)(F)F)c5)n4)c(C(F)F)n3)C2)CC1 [Example 30, (S)—N-(3-(difluoromethyl)-1-(1-(1-(2-hydroxypropionyl)piperidin-4-yl)azetidin-3-yl)-1H-pyrazol-4-yl)-6-(1-(2,2,2-trifluoroethyl)-1H-pyrazol-4-yl)-2-picolinamide] | 3.3
6 | CN(C)C(=O)N1CCC(N2CC(n3cc(NC(=O)c4cccc(-c5cnn(C(C)(C)CN)c5)n4)c(C(F)F)n3)C2)CC1 [Example 17, 6-(1-(1-Amino-2-methylpropan-2-yl)-1H-pyrazol-4-yl)-N-(3-(difluoromethyl)-1-(1-(1-(dimethylcarbamoyl)piperidin-4-yl)azetidin-3-yl)-1H-pyrazol-4-yl)-2-picolinamide] | 0.57
7 | CN(C)C(=O)N1CCC(N2CC(n3cc(NC(=O)c4cccc(-c5cn[nH]c5)n4)c(C(F)F)n3)C2)CC1 [Example 20, N-(3-(difluoromethyl)-1-(1-(1-(dimethylcarbamoyl)piperidin-4-yl)azetidin-3-yl)-1H-pyrazol-4-yl)-6-(1H-pyrazol-4-yl)-2-picolinamide] | 3.2
8 | COC(=O)N1CCC(N2CC(n3cc(NC(=O)c4cccc(-c5cnn(C(C)(C)CN)c5)n4)c(C(F)F)n3)C2)CC1 [Example 18, Methyl 4-(3-(4-(6-(1-(1-amino-2-methylpropan-2-yl)-1H-pyrazol-4-yl)-2-picolinamide)-3-(difluoromethyl)-1H-pyrazol-1-yl)azetidin-1-yl)piperidine-1-carboxylate] | 0.67
9 | C=CC(=O)N1CCC(N2CC(n3cc(NC(=O)c4cccc(-c5cn[nH]c5)n4)c(C(F)F)n3)C2)CC1 [Example 22, N-(1-(1-(1-acryloylpiperidin-4-yl)azetidin-3-yl)-3-(difluoromethyl)-1H-pyrazol-4-yl)-6-(1H-pyrazol-4-yl)-2-picolinamide] | 2.5
10 | CS(=O)(=O)N1CCC(N2CC(n3cc(NC(=O)c4cccc(-c5cnn(CC(F)(F)F)c5)n4)c(C(F)F)n3)C2)CC1 [Example 33, N-(3-(difluoromethyl)-1-(1-(1-(methylsulfonyl)piperidin-4-yl)azetidin-3-yl)-1H-pyrazol-4-yl)-6-(1-(2,2,2-trifluoroethyl)-1H-pyrazol-4-yl)-2-picolinamide] | 4.9
11 | CC(=O)N1CCC(N2CC(n3cc(NC(=O)c4cccc(-c5cnn(C)c5)n4)c(C(F)F)n3)C2)CC1 [Example 6, N-(1-(1-(1-acetylpiperidin-4-yl)azetidin-3-yl)-3-(difluoromethyl)-1H-pyrazol-4-yl)-6-(1-methyl-1H-pyrazol-4-yl)-2-picolinamide] | 4.2
12 | CN(C)C(=O)N1CCC(N2CC(n3cc(NC(=O)c4cccc(-c5cc[nH]n5)n4)c(C(F)F)n3)C2)CC1 [Example 28, N-(3-(difluoromethyl)-1-(1-(1-(dimethylcarbamoyl)piperidin-4-yl)azetidin-3-yl)-1H-pyrazol-4-yl)-6-(1H-pyrazol-3-yl)-2-picolinamide] | 0.68
13 | CCn1cc(-c2cccc(C(=O)Nc3cn(C4CN(C5CCN(C(C)=O)CC5)C4)nc3C(F)F)n2)cn1 [Example 7, N-(1-(1-(1-acetylpiperidin-4-yl)azetidin-3-yl)-3-(difluoromethyl)-1H-pyrazol-4-yl)-6-(1-ethyl-1H-pyrazol-4-yl)-2-picolinamide] | 3.3
14 | CS(=O)(=O)N1CCC(N2CC(n3cc(NC(=O)c4cccc(-c5cnn(CC(F)F)c5)n4)c(C(F)F)n3)C2)CC1 [Example 37, 6-(1-(2,2-Difluoroethyl)-1H-pyrazol-4-yl)-N-(3-(difluoromethyl)-1-(1-(1-(methylsulfonyl)piperidin-4-yl)azetidin-3-yl)-1H-pyrazol-4-yl)-2-picolinamide] | 5.8
15 | COC(=O)N1CCC(N2CC(n3cc(NC(=O)c4cccc(-c5cc[nH]n5)n4)c(C(F)F)n3)C2)CC1 [Example 25, Methyl 4-(3-(4-(6-(1H-pyrazol-3-yl)-2-picolinamide)-3-(difluoromethyl)-1H-pyrazol-1-yl)azetidin-1-yl)piperidine-1-carboxylate] | 0.65
16 | CC(=O)N1CCC(N2CC(n3cc(NC(=O)c4cccc(-c5cnn(C6(C#N)CC6)c5)n4)c(C(F)F)n3)C2)CC1 [Example 9, N-(1-(1-(1-acetylpiperidin-4-yl)azetidin-3-yl)-3-(difluoromethyl)-1H-pyrazol-4-yl)-6-(1-(1-cyanocyclopropyl)-1H-pyrazol-4-yl)-2-picolinamide] | 2.5
17 | CC(=O)N1CCC(N2CC(n3cc(NC(=O)c4cccc(-c5cnn(CC(C)(C)O)c5)n4)c(C(F)F)n3)C2)CC1 [Example 15, N-(1-(1-(1-acetylpiperidin-4-yl)azetidin-3-yl)-3-(difluoromethyl)-1H-pyrazol-4-yl)-6-(1-(2-hydroxy-2-methylpropyl)-1H-pyrazol-4-yl)-2-picolinamide] | 3.9
18 | CC(C)C(=O)N1CCC(N2CC(n3cc(NC(=O)c4cccc(-c5cc[nH]n5)n4)c(C(F)F)n3)C2)CC1 [Example 29, N-(3-(difluoromethyl)-1-(1-(1-isobutyrylpiperidin-4-yl)azetidin-3-yl)-1H-pyrazol-4-yl)-6-(1H-pyrazol-3-yl)-2-picolinamide] | 0.81
19 | C[C@H](O)C(=O)N1CCC(N2CC(n3cc(NC(=O)c4cccc(-c5cc[nH]n5)n4)c(C(F)F)n3)C2)CC1 [Example 39, (S)—N-(3-(difluoromethyl)-1-(1-(1-(2-hydroxypropionyl)piperidin-4-yl)azetidin-3-yl)-1H-pyrazol-4-yl)-6-(1H-pyrazol-3-yl)-2-picolinamide] | 0.69
20 | CCC(=O)N1CCC(N2CC(n3cc(NC(=O)c4cccc(-c5cc[nH]n5)n4)c(C(F)F)n3)C2)CC1 [Example 26, N-(3-(difluoromethyl)-1-(1-(1-propionylpiperidin-4-yl)azetidin-3-yl)-1H-pyrazol-4-yl)-6-(1H-pyrazol-3-yl)-2-picolinamide] | 0.54
21 | CN(C)C(=O)N1CCC(N2CC(n3cc(NC(=O)c4cccc(-c5cnn(CC(F)F)c5)n4)c(C(F)F)n3)C2)CC1 [Example 38, 6-(1-(2,2-Difluoroethyl)-1H-pyrazol-4-yl)-N-(3-(difluoromethyl)-1-(1-(1-(dimethylcarbamoyl)piperidin-4-yl)azetidin-3-yl)-1H-pyrazol-4-yl)-2-picolinamide] | 1.5
22 | CS(=O)(=O)N1CCC(N2CC(n3cc(NC(=O)c4cccc(-c5cc[nH]n5)n4)c(C(F)F)n3)C2)CC1 [Example 42, N-(3-(difluoromethyl)-1-(1-(1-(methylsulfonyl)piperidin-4-yl)azetidin-3-yl)-1H-pyrazol-4-yl)-6-(1H-pyrazol-3-yl)-2-picolinamide] | 1.2
23 | C=CC(=O)N1CCC(N2CC(n3cc(NC(=O)c4cccc(-c5cc[nH]n5)n4)c(C(F)F)n3)C2)CC1 [Example 23, N-(1-(1-(1-acryloylpiperidin-4-yl)azetidin-3-yl)-3-(difluoromethyl)-1H-pyrazol-4-yl)-6-(1H-pyrazol-3-yl)-2-picolinamide] | 0.63
24 | CC(=O)N1CCC(N2CC(n3cc(NC(=O)c4cccc(-c5cn[nH]c5)n4)c(C(F)F)n3)C2)CC1 [Example 19, N-(1-(1-(1-acetylpiperidin-4-yl)azetidin-3-yl)-3-(difluoromethyl)-1H-pyrazol-4-yl)-6-(1H-pyrazol-4-yl)-2-picolinamide] | 1.9
